Experimental findings from patent publication US20070213346A1, “Substituted 4-Alkyl-And 4-Alkanoyl-Piperidine Derivatives And Their Use As Neurokinin Antagonists” (priority 2004, published 2007) are described below.

Holding throughout (type): cell-based
Assay [1] concerns the target NK1 (Homo sapiens, UniProt P25103). The experiment in a line: Signal transduction (ST), intracellular Ca++ FLIPR, NK1. The following applies: antagonist, Ca++ transient peak, read-out: NK1 pIC50 (converted). The procedure:
(§1) This test evaluates in vitro functional NK1 antagonistic activity. For the measurements of intracellular Ca^++ concentrations the cells were grown on 96-well (black wall/transparent bottom) plates from Costar for 2 days until they reached confluence. The cells were loaded with 2 μM Fluo3 in DMEM containing 0.1% BSA and 2.5 mM probenecid for 1 h at 37° C. They were washed 3× with a Krebs buffer (140 mM NaCl, 1 mM MgCl2x6H2O, 5 mM KCl, 10 mM glucose, 5 mM HEPES; 1.25 mM CaCl2; pH 7.4) containing 2.5 mM probenecid and 0.1% BSA (Ca^++-buffer). The cells were preincubated with a concentration range of antagonists for 20 min at RT and Ca^++-signals after addition of the agonists were measured in a Fluorescence Image Plate Reader (FLIPR from Molecular Devices, Crawley, England). The peak of the Ca^++-transient was considered as the relevant signal and the mean values of corresponding wells were analysed as described below.
The sigmoidal dose response curves were analysed by computerised curve-fitting, using the GraphPad program. The EC50-value of a compound is the effective dose showing 50% of maximal effect. For mean curves the response to the agonist with the highest potency was normalised to 100%. For antagonist responses the IC50-value was calculated using non-linear regression. […]

For assay [2], the target named is T1, NK2 (Homo sapiens, UniProt P21452).
T1 sequence (P21452 1-398): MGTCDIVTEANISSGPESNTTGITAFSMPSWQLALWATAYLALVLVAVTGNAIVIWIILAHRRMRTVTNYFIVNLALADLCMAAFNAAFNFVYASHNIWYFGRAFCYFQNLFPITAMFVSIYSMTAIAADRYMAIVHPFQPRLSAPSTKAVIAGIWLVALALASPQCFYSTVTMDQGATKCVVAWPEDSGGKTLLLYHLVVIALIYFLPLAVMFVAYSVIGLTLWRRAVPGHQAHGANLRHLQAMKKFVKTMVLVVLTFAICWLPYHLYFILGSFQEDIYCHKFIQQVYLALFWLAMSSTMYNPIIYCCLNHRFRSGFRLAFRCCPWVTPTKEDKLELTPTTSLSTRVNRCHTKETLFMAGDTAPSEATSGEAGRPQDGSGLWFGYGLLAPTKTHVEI
The experiment in a line: Signal transduction (ST), intracellular Ca++ FLIPR, NK2. Conditions: antagonist, Ca++ transient peak, read-out: NK2 pIC50 (converted). The procedure:
[The source words this procedure for another target and reports this target under the same test.] as §1
(§2) The sigmoidal dose response curves were analysed by computerised curve-fitting, using the GraphPad program. The EC50-value of a compound is the effective dose showing 50% of maximal effect. For mean curves the response to the agonist with the highest potency was normalised to 100%. For antagonist responses the IC50-value was calculated using non-linear regression.
(§3) The last columns indicates—without being limited thereto—for which use the compounds might be most suitable. Of course, since for some neurokinin receptors no data was determined, it is obvious that these compounds might be attributed to another suitable use.

Assay [3] addresses T2, NK3 (Homo sapiens, UniProt P29371).
T2 sequence (P29371 1-465): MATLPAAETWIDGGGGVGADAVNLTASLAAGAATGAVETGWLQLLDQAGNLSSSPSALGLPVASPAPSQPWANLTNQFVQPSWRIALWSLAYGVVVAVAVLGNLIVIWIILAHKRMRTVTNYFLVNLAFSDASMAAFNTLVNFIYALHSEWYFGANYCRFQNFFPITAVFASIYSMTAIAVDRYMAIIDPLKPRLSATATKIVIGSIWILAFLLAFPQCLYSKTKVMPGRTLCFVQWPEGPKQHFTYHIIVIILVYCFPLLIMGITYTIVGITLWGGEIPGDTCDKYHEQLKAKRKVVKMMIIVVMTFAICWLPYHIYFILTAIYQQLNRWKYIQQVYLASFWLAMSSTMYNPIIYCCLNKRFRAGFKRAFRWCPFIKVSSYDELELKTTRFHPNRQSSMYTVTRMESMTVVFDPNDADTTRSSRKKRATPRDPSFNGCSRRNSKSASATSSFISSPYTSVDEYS
The experiment in a line: Signal transduction (ST), intracellular Ca++ FLIPR, NK3. Conditions: antagonist, Ca++ transient peak, read-out: NK3 pIC50 (converted). As for the experimental part:
[The source words this procedure for another target and reports this target under the same test.] as §1, §2, §3

NK1, sequence (P25103 whole entry): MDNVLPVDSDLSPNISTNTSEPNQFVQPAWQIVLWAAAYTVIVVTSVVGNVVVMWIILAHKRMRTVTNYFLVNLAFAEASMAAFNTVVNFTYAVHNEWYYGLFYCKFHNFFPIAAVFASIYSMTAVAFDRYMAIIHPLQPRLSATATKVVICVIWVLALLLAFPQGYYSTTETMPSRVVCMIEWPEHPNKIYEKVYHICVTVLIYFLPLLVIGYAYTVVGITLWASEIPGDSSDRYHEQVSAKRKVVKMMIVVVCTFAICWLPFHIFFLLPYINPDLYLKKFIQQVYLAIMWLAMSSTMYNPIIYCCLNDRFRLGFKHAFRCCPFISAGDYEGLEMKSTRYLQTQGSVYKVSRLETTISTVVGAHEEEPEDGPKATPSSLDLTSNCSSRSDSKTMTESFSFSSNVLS

With `O=C(c1cccs1)N1CCC(N2CCN(C[C@H]3CCN(C(=O)c4cc(C(F)(F)F)cc(C(F)(F)F)c4)[C@H](Cc4ccccc4)C3)CC2)CC1` (relative stereo) [Compound 37], the IC50 is 0.275 µM in assay [1], 8.91 µM in assay [2] and 7.08 µM in assay [3].

Take `O=C(c1ccoc1)N1CCC(N2CCN(CC3CCN(C(=O)c4cc(C(F)(F)F)cc(C(F)(F)F)c4)C(Cc4ccccc4)C3)CC2)C1` (centres unmarked) [Compound 11]: the IC50 is 0.0501 µM in assay [1], 7.41 µM in assay [2] and approximately 7.94 µM in assay [3].

In the case of `O=C(C1CC1)N1CCC(N2CCN(CC3CCN(C(=O)c4cc(C(F)(F)F)cc(C(F)(F)F)c4)C(Cc4ccccc4)C3)CC2)CC1` (centres unmarked) [Compound 15], the IC50 was 0.191 µM in assay [1], approximately 3.16 µM in assay [2] and approximately 7.76 µM in assay [3].

For `O=C(c1cc(C(F)(F)F)cc(C(F)(F)F)c1)N1CCC(CN2CCN(C3CCN(c4ncccn4)CC3)CC2)CC1Cc1ccccc1` (centres unmarked) [Compound 17], the IC50 was 0.0851 µM in assay [1], 7.24 µM in assay [2] and 5.25 µM in assay [3].

On to `Cc1ccc(N2CCC(N3CCN(CC4CCN(C(=O)c5cc(C(F)(F)F)cc(C(F)(F)F)c5)C(Cc5ccccc5)C4)CC3)CC2)nn1` (centres unmarked) [Compound 18], for which the values for the IC50 in assay [1], in assay [2] and in assay [3] were 0.229 µM, more than 10 µM and more than 10 µM, respectively.

As to `O=C(c1cc(C(F)(F)F)cc(C(F)(F)F)c1)N1CCC(CN2CCN(C3CCN(c4cnccn4)CC3)CC2)CC1Cc1ccccc1` (centres unmarked) [Compound 19], the IC50 in assay [1] was 0.288 µM; in assay [2], more than 10 µM; in assay [3], 7.94 µM.

On to `Cn1c(Cl)cnc1CN1CCC(N2CCN(CC3CCN(C(=O)c4cc(C(F)(F)F)cc(C(F)(F)F)c4)C(Cc4ccccc4)C3)CC2)CC1` (centres unmarked) [Compound 20], for which the IC50 in assay [1] was 0.0933 µM; in assay [2], more than 10 µM; in assay [3], more than 10 µM.

As to `O=C(c1cccnc1)N1CCC(N2CCN(C[C@H]3CCN(C(=O)c4cc(C(F)(F)F)cc(C(F)(F)F)c4)[C@H](Cc4ccccc4)C3)CC2)CC1` [Compound 48], the IC50 in assay [1] was 0.0257 µM; in assay [2], more than 10 µM.

For `COc1cccc(CC(=O)N2CCC(N3CCN(CC4CCN(C(=O)c5cc(C(F)(F)F)cc(C(F)(F)F)c5)C(Cc5ccccc5)C4)CC3)CC2)c1` (centres unmarked) [Compound 52], the results for the IC50 in assay [1], in assay [2] and in assay [3] were 0.316 µM, 2.34 µM and approximately 9.77 µM, respectively.

With `O=C(C1CC1)N1CCC(N2CCN(C(=O)[C@H]3CCN(C(=O)c4cc(C(F)(F)F)cc(C(F)(F)F)c4)[C@H](Cc4ccccc4)C3)CC2)CC1` [Compound 56], the IC50 in assay [1] was 0.0123 µM; in assay [2], 4.68 µM; in assay [3], 0.692 µM.

For `O=C(c1cc(C(F)(F)F)cc(C(F)(F)F)c1)N1CCC(CN2CCN(C3CCNC3)CC2)CC1Cc1ccccc1` (centres unmarked) [Compound 60], the IC50 in assay [1] is 0.182 µM; in assay [2] it was more than 10 µM; in assay [3] it was more than 10 µM.

Consider `O=C(C1CC1)N1CCC(N2CCN(C[C@H]3CCN(C(=O)c4cc(C(F)(F)F)cc(C(F)(F)F)c4)[C@H](Cc4ccccc4)C3)CC2)C1` (some centres unmarked) [Compound 61], for which the IC50 in assay [1] is 0.0741 µM; in assay [2] it was more than 10 µM; in assay [3], more than 10 µM.

With `O=C(c1ccsc1)N1CCC(N2CCN(C[C@H]3CCN(C(=O)c4cc(C(F)(F)F)cc(C(F)(F)F)c4)[C@H](Cc4ccccc4)C3)CC2)C1` (some centres unmarked) [Compound 62], the IC50 is 0.1 µM in assay [1], 7.24 µM in assay [2] and more than 10 µM in assay [3].

In the case of `Cc1nnsc1C(=O)N1CCC(N2CCN(C[C@H]3CCN(C(=O)c4cc(C(F)(F)F)cc(C(F)(F)F)c4)[C@H](Cc4ccccc4)C3)CC2)C1` (some centres unmarked) [Compound 63], the IC50 in assay [1] was 0.0708 µM; in assay [2], more than 10 µM; in assay [3], more than 10 µM.

As to `O=C(c1ccccc1)N1CCC(N2CCN(C[C@H]3CCN(C(=O)c4cc(C(F)(F)F)cc(C(F)(F)F)c4)[C@H](Cc4ccccc4)C3)CC2)C1` (some centres unmarked) [Compound 64], the IC50 in assay [1] was 0.117 µM; in assay [2], more than 10 µM; in assay [3] it was more than 10 µM.

Turning to `O=C(c1cccnc1)N1CCC(N2CCN(C[C@H]3CCN(C(=O)c4cc(C(F)(F)F)cc(C(F)(F)F)c4)[C@H](Cc4ccccc4)C3)CC2)C1` (some centres unmarked) [Compound 65], the IC50 in assay [1] is 0.105 µM; in assay [2], more than 10 µM; in assay [3], more than 10 µM.

Turning to `O=C(c1cc(C(F)(F)F)cc(C(F)(F)F)c1)N1CCC(O)(CN2CCN(C3CCNC3)CC2)CC1Cc1ccccc1` (centres unmarked) [Compound 76], the IC50 in assay [1] is 0.148 µM; in assay [2], more than 10 µM; in assay [3], more than 10 µM.

Take `O=C(C1CC1)N1CCC(N2CCN(CC3(O)CCN(C(=O)c4cc(C(F)(F)F)cc(C(F)(F)F)c4)C(Cc4ccccc4)C3)CC2)C1` (centres unmarked) [Compound 77]: the IC50 was 0.0427 µM in assay [1], 7.94 µM in assay [2] and 2.88 µM in assay [3].

As for `O=C(c1ccoc1)N1CCC(N2CCN(CC3(O)CCN(C(=O)c4cc(C(F)(F)F)cc(C(F)(F)F)c4)C(Cc4ccccc4)C3)CC2)C1` (centres unmarked) [Compound 78], the values for the IC50 in assay [1], in assay [2] and in assay [3] were 0.0363 µM, 8.91 µM and 2.51 µM, respectively.

With `O=C(c1ccccc1)N1CCC(N2CCN(CC3(O)CCN(C(=O)c4cc(C(F)(F)F)cc(C(F)(F)F)c4)C(Cc4ccccc4)C3)CC2)C1` (centres unmarked) [Compound 79], the values for the IC50 in assay [1], in assay [2] and in assay [3] were 0.0316 µM, 9.12 µM and 7.24 µM, respectively.

For `O=C(c1cccnc1)N1CCC(N2CCN(CC3(O)CCN(C(=O)c4cc(C(F)(F)F)cc(C(F)(F)F)c4)C(Cc4ccccc4)C3)CC2)C1` (centres unmarked) [Compound 80], the IC50 is 0.0302 µM in assay [1], 8.13 µM in assay [2] and more than 10 µM in assay [3].

For `O=C(C1CCOC1)N1CCC(N2CCN(C(=O)[C@H]3CCN(C(=O)c4cc(C(F)(F)F)cc(C(F)(F)F)c4)[C@H](Cc4ccccc4)C3)CC2)CC1` (some centres unmarked) [Compound 92], the IC50 is 0.024 µM in assay [1], 6.76 µM in assay [2] and 0.871 µM in assay [3].

Turning to `Cc1nnsc1C(=O)N1CCC(N2CCN(CC3(O)CCN(C(=O)c4cc(C(F)(F)F)cc(C(F)(F)F)c4)C(Cc4ccccc4)C3)CC2)C1` (centres unmarked) [Compound 93], the IC50 in assay [1] is 0.0398 µM; in assay [2] it was 7.76 µM; in assay [3], 4.27 µM.
